Patent publication US5891679A, “TNF-alpha muteins and a process for preparing them” (priority 1993, dated 1999)
Entries after “also recorded” stand apart in the source; their conditions may differ. Bridges are numbered along the chain shown (N, C = ends). The star is where a group is joined. Biotin = O=C1N[C@H]2[C@H](CS[C@H]2CCCCC(=O)*)N1

Assays:
[1] = system: Trypanosoma brucei brucei; test: In vitro trypanocidal assay, T. brucei brucei; assay type: cell-based; conditions: for effect on trypanocidal activity of TNF-α / tip peptide: preincubation or cotreatment with the substance; for % inhibition of trypanocidal activity: lectin 10 μg/ml; for Δ: % inhibition of trypanocidal activity by the addition of the p55 hTNFα receptor protein: p55 5 μg/ml
Procedure: The Trypanosoma brucei brucei AnTat 1.1 (EATRO 1125) pleomorphic bloodstream form was kindly provided to us by Dr. N. Van Meirvenne of the Institute for Tropical Medecine, Antwerp, Belgium, and the Trypanosoma brucei rhodesiense Trp 11 pleomorphic bloodstream form was kindly provided to us by Dr. E. Bajyana Songa (Dept. Molecular Biology, Free University of Brussels, Belgium)
After 5 h of incubation, the number of live (=moving) parasites was assessed (counting chamber) and compared the control wells in which only incubation medium was added to the trypanosomes. […] All treatments were done in quadruplicate and all reported in vitro trypanolysis experiments were repeated at least 3 times.

L929 cells = test: L929 cell killing (cytotoxic/cytolytic/tumoricidal) assay; assay type: cell-based, mouse; conditions: for effect on mTNF-α tumoricidal (cytolytic) activity: preincubation of mTNF-α with the substance; for Δ: % inhibition of tumoricidal activity by the addition of the p55 hTNFα receptor protein: p55 5 μg/ml
Procedure: L929 fibrosarcoma cells were obtained from the Rega Institute, Leuven, Belgium.
After 18 h of culture at 37° C., viability of the cell cultures was assessed by dye uptake analysis. […] The plates were read spectrophotometrically at 577 nm with a Titertek multiscan MCC340 ELISA Reader (Flow Laboratories, McLean, Va.).

[2] = system: human interleukin-6 (IL6); test: IL6 production by hMVECb cells; assay type: cell-based; conditions: 24 hours
Procedure: Subsequently, the IL6 concentration in the supernatant of the cells was assessed using a commercially available hIL6 ELISA kit (Medgenix, Belgium).

[3] = system: human interleukin 8 (IL8); test: IL8 production by hMVECb cells; assay type: cell-based

## [Cl-].[Li+] [LiCl, reference compound]
[1]; 1 μg/ml of LiCl co-treatment
  potentiation of trypanocidal effect of TNF-α: 100 fold
[1]; T. brucei brucei, 5 h, data not shown
  mortality of trypanosomes: by itself had no effect on the survival of the trypanosomes
[1]
  effect on trypanocidal activity of TNF-α / tip peptide: synergistically potentiates the trypanocidal effect of mTNF-α

## CC(=O)N[C@H]1[C@H](O[C@H]2[C@H](O)[C@@H](NC(C)=O)C(O)O[C@@H]2CO)O[C@H](CO)[C@@H](O)[C@@H]1O (stereo partly drawn) [N,N'-diacetylchitobiose, reference compound]
L929 cells; L929 cells
  effect on mTNF-α tumoricidal (cytolytic) activity: not the cytolytic activity; also recorded: not affected
[1]
  effect on trypanocidal activity of TNF-α / tip peptide: potently inhibits the trypanocidal activity; also recorded: potent inhibition of the mTNF-α trypanocidal effect; also recorded: trypanocidal activity of the peptide can also be inhibited

## Bio-GG-C - - - - APEGAE - - - - - C (Biotin-GGCAPEGAEC-NH2; cysteine pairing not given here) [mutpep 1]
[1]; T. brucei brucei
  trypanocidal activity: lost their trypanocidal activity

## Bio-GG-C-TAEGAE-C (Biotin-GGCTAEGAEC-NH2; cysteine pairing not given here) [mutpep 2]
[1]; T. brucei brucei
  trypanocidal activity: fully or even more active

## Bio-GG-C-TPAGAE-C (Biotin-GGCTPAGAEC-NH2; cysteine pairing not given here) [mutpep 3]
[1]; T. brucei brucei
  trypanocidal activity: lost their trypanocidal activity

## Bio-GG-C-TPEAAE-C (Biotin-GGCTPEAAEC-NH2; cysteine pairing not given here) [mutpep 4]
[1]; T. brucei brucei
  trypanocidal activity: fully or even more active

## Bio-GG-C-TPEGAA-C (Biotin-GGCTPEGAAC-NH2; cysteine pairing not given here) [mutpep 5]
[1]; T. brucei brucei
  trypanocidal activity: lost their trypanocidal activity

## Bio-GG-C-TPEGAE-C (Biotin-GGCTPEGAEC-NH2; cysteine pairing not given here) [subpep 1]
[1]; T. brucei brucei
  trypanocidal activity: full trypanocidal activity

## Bio-GG-CGPKDTPEGAELKPWYC (Biotin-GGCGPKDTPEGAELKPWYC-NH2; disulfide 3-19 (inferred)) [mTNFα-tip]
L929 cells; L929 cells, similar dose response curve, data not shown
  tumoricidal activity of tip peptide: exerts no tumoricidal activity
[1]; T. brucei brucei
  trypanocidal activity: shows a trypanocidal activity
[1]; in vitro trypanocidal assay, average specificity
  trypanocidal specific activity: 4×10^2 -4×10^3 U/mg of peptide

## Bio-GG-CGQRETPEGAEAKPWYC [hTNFα-tip]
[1]; T. brucei brucei
  trypanocidal activity: shows similar results

## Bio-GG-EGAELKPWY [subpep 2]
[1]; T. brucei brucei
  trypanocidal activity: strongly reduced trypanocidal activity

## GNA: lectin Galanthus nivalis agglutinin [reference compound]
L929 cells; L929 cells
  effect on mTNF-α tumoricidal (cytolytic) activity: none of these lectins had any effect
[1]; mTNF-α 1.000 pg/ml
  % inhibition of trypanocidal activity: 5 ± 3%
[1]; mTNF-α 10.000 pg/ml
  % inhibition of trypanocidal activity: 5 ± 2%
[1]; mTNF-α 100 pg/ml
  % inhibition of trypanocidal activity: 0 ± 1%
[1]; mTNF-α 100.000 pg/ml
  % inhibition of trypanocidal activity: 3 ± 2%
[1]; mTNF-α 1.000.000 pg/ml
  % inhibition of trypanocidal activity: 2 ± 1%
[1]
  effect on trypanocidal activity of TNF-α / tip peptide: did not have any effect

B1: P106A mTNF-α: Pro106 of mTNF-α is changed to an Ala residue (protein)
chain: LRSSSQNSSDKPVAHVVANHQVEEQLEWLSQRANALLANGMDLKDNQLVVPADGLYLVYSQVLFKGQGCPDYVLLTHTVSRFAISYQEKVNLLSAVKSPCPKDTAEGAELKPWYEPIYLGGVFQLEKGDQLSAEVNLPKYLDFAESGQVYFGVIAL
[2]; 333 pg/ml, experiment 1
  IL6 concentration: 720 pg/mL
[2]; 333 pg/ml, experiment 2
  IL6 concentration: 1300 pg/mL
[2]; 1000 pg/ml, experiment 1
  IL6 concentration: 560 pg/mL
[2]; 1000 pg/ml, experiment 2
  IL6 concentration: 750 pg/mL
[2]; 1666 pg/ml, experiment 1
  IL6 concentration: 800 pg/mL
[2]; 1666 pg/ml, experiment 2
  IL6 concentration: 1300 pg/mL
[3]; 333 pg/ml, experiment 1, 24 hours
  IL8 concentration: 300 pg/mL
[3]; 333 pg/ml, experiment 2, 24 hours
  IL8 concentration: 400 pg/mL
[3]; 1000 pg/ml, experiment 1, 24 hours
  IL8 concentration: 1100 pg/mL
[3]; 1000 pg/ml, experiment 2, 24 hours
  IL8 concentration: 1500 pg/mL
[3]; 1666 pg/ml, experiment 1, 24 hours
  IL8 concentration: 250 pg/mL
[3]; 1666 pg/ml, experiment 2, 24 hours
  IL8 concentration: 900 pg/mL
[3]; hMVECb, 24 hours
  fold less IL8 induced than wild type TNF-α: about 3 fold
[3]; human endothelial brain cells
  IL8 induction compared with wild type: induce consistently less human interleukin 8 (IL8)

B2: soluble p55 hTNF-α receptor: soluble p55 hTNF-α receptor protein (protein)
chain: DSVCPQGKYIHPQNNSICCTKCHKGTYLYNDCPGPGQDTDCRECESGSFTASENHLRHCLSCSKCRKEMGQVEISSCTVDRDTVCGCRKNQYRHYWSENLFQCFNCSLCLNGTVHLSCQEKQNTVCTCHAGFFLRENECVSCSNCKKSLECTKLCLPQIEN
L929 cells; mTNF-α 100 pg/ml
  Δ: % inhibition of tumoricidal activity by the addition of the p55 hTNFα receptor protein: 100 ± 5%
L929 cells; mTNF-α 1000 pg/ml
  Δ: % inhibition of tumoricidal activity by the addition of the p55 hTNFα receptor protein: 100 ± 4%
L929 cells; mTNF-α 10000 pg/ml
  Δ: % inhibition of tumoricidal activity by the addition of the p55 hTNFα receptor protein: 5 ± 2%
L929 cells; L929 cells
  effect on mTNF-α tumoricidal (cytolytic) activity: potently inhibits the mTNF-α tumoricidal activity
[1]; mTNF-α 100 pg/ml
  Δ: % inhibition of trypanocidal activity by the addition of the p55 hTNFα receptor protein: 15 ± 5%
[1]; mTNF-α 1000 pg/ml
  Δ: % inhibition of trypanocidal activity by the addition of the p55 hTNFα receptor protein: 10 ± 4%
[1]; mTNF-α 10000 pg/ml
  Δ: % inhibition of trypanocidal activity by the addition of the p55 hTNFα receptor protein: 7 ± 5%
[1]
  effect on trypanocidal activity of TNF-α / tip peptide: hardly influenced
